# Reference: ChEMBL document CHEMBL6153047, “Sulfilimines from a Medicinal Chemist's Perspective: Physicochemical and in Vitro Parameters Relevant for Drug Discovery” (J Med Chem, 2025)
# Experiments:
# [1] = Chemical stability assessed as compound decomposition at pH 4 and 40 degreeC measured after 3 days by HPLC-UV analysis; type: physicochemical; conditions: buffer, time 3 day, read-out: Drug degradation
# [2] = Permeability across apical to basal side in human Caco-2 cells measured upto 2 hrs; type: ADME, cell-based; conditions: caco-2, 2 h
# [3] = Stability in mouse liver microsomes assessed as hepatic extraction ratio at 1 uM preincubated with compound followed by NADPH addition by LC-MS/MS analysis; type: ADME, Microsome; conditions: read-out: ERH
# [4] = Stability in human hepatocytes assessed as hepatic extraction ratio at 1 uM incubated for 6 hrs by HPLC-MS/MS analysis; type: ADME, cell-based, Hepatocyte; conditions: read-out: ERH
# [5] = Aqueous solubility of compound at pH 6.8 incubated for 24 hrs by LC-UV analysis; type: physicochemical; conditions: buffer, pH 6.8, 24 h
# [6] = Stability in human liver microsomes assessed as hepatic extraction ratio at 1 uM preincubated with compound followed by NADPH addition by LC-MS/MS analysis; type: ADME, Microsome; conditions: read-out: ERH
# [7] = Efflux ratio in human Caco-2 cells measured upto 2 hrs; type: ADME, cell-based; conditions: caco-2, 2 h
# [8] = Chemical stability assessed as compound decomposition at pH 10 and 40 degreeC measured after 3 days by HPLC-UV analysis; type: physicochemical; conditions: buffer, time 3 day, read-out: Drug degradation
# [9] = Chemical stability assessed as compound decomposition at pH 1 and 40 degreeC measured after 3 days by HPLC-UV analysis; type: physicochemical; conditions: buffer, time 3 day, read-out: Drug degradation
# [10] = Chemical stability assessed as compound decomposition at pH 7.4 and 40 degreeC measured after 3 days by HPLC-UV analysis; type: physicochemical; conditions: buffer, time 3 day, read-out: Drug degradation
# [11] = Lipophilicity, logD of compound at pH 7.4 by UPLC-UV-MS analysis; type: physicochemical; conditions: buffer
# [12] = Protein binding in human plasma at 1 uM incubated for 5 hrs by rapid equilibrium dialysis; type: ADME, cell-free
# [13] = Apparent permeability of compound incubated for 5 hrs by PAMPA assay; type: ADME
# [14] = Dissociation constant, pKa of compound by UV spectroscopy; type: physicochemical
Compound,degraded at 72 h [1] [%],permeability [2],hepatic extraction ratio at 1 µM [3],"hepatic extraction ratio at 6 h, 1 µM [4]",solubility [5] [µg/mL],hepatic extraction ratio at 1 µM [6],Ratio [7],degraded at 72 h [8] [%],degraded at 72 h [9] [%],degraded at 72 h [10] [%],logD [11],PPB [12] [%],Papp at 5 h [13] [×10⁻⁶ cm/s],logD ([11]; read-out: logD),pKa [14]
N=S(c1ccc(C(F)(F)F)cc1)c1cccnc1 (stereo unspecified),1,93 10^-6 cm/s,0.26,0.08,49,< 0.23,0.9,1,4,3,–,–,–,–,–
COC(=O)/N=S(\c1ccc(C(F)(F)F)cc1)C1CC1 (stereo unspecified),10,88 10^-6 cm/s,0.38,0.29,26,< 0.23,0.8,11,27,10,2.1,–,–,–,–
CCS(=N)c1ccc(C(F)(F)F)cc1 (stereo unspecified),5,–,< 0.23,0.17,–,< 0.23,0.9,97,17,13,0.7,–,–,–,–
COc1ccc(/S(C)=N\C(=O)C(C)(C)C)cc1 (stereo unspecified),–,69 10^-6 cm/s,0.65,0.58,–,0.27,0.8,–,–,–,2,–,–,–,–
CC(C)(C)C(=O)/N=S(\c1ccc(C(F)(F)F)cc1)C1CC1 (stereo unspecified),4,90 10^-6 cm/s,0.59,0.16,51,< 0.23,0.7,3,0.9,4,3.5,–,–,–,–
Cc1ccc(S(=O)(=O)c2ccccc2)cc1,–,39 10^-6 cm/s,–,0.78,–,–,0.6,–,–,–,3.3,–,–,–,–
C[S+]([O-])c1ccc(C(F)(F)F)cc1 (stereo unspecified),–,130 10^-6 cm/s,–,0.19,> 46,–,0.8,–,–,–,1.9,–,–,–,–
COc1ccc(/S(=N/C(=O)C(C)(C)C)c2ccc(C)cc2)cc1 (stereo unspecified),2,72 10^-6 cm/s,> 0.88,0.46,59,0.44,0.7,1,< 0.5,2,4,–,–,–,–
CC(=O)/N=S(\c1ccc(C(F)(F)F)cc1)C1CC1 (stereo unspecified),8,85 10^-6 cm/s,< 0.23,0.1,38,< 0.23,0.7,8,20,7,1.7,–,–,–,–
COC(=O)C(C(=O)OC)=S(NC(=O)C(C)(C)C)c1ccccc1 (stereo unspecified),< 0.1,> 10 10^-6 cm/s,0.63,–,> 76,> 0.89,< 1,7,58,6,2.5,–,–,–,–
Cc1ccc(S(=O)(=NC(=O)C(C)(C)C)c2ccccc2)cc1 (stereo unspecified),0,51 10^-6 cm/s,> 0.88,0.33,< 1,0.61,0.7,0,16,0,4.2,–,–,–,–
CS(=O)(=O)c1ccc(C(F)(F)F)cc1,–,–,–,–,> 47,–,–,–,–,–,2.3,–,–,–,–
Cc1ccc(NC(=O)c2ccc(P(C)(C)=O)cc2)cc1Nc1nccc(-c2cccnc2)n1,–,–,0.35,< 0.04,58,< 0.23,> 100,–,–,–,1.4,83.8,0.043,–,–
Cc1ccc(S(=N)C2CC2)cc1 (stereo unspecified),3,–,< 0.23,0.57,27,< 0.23,0.7,7,8,0.5,–,–,–,0.3,10.9
FC(F)(F)c1ccc(/S(=N\c2ccccc2)C2CC2)cc1 (stereo unspecified),2,43 10^-6 cm/s,> 0.88,0.73,41,> 0.89,0.7,7,80,9,3.5,–,–,–,7.2
Cc1ccc(S(=N)(=O)c2ccccc2)cc1 (stereo unspecified),< 0.5,93 10^-6 cm/s,0.66,0.46,> 47,0.45,0.8,< 0.5,< 0.5,< 0.5,–,–,–,–,2.4
CC(=O)/N=S(/c1ccccc1)c1ccc(C)cc1 (stereo unspecified),5,85 10^-6 cm/s,0.63,0.26,> 52,< 0.23,0.8,4,22,4,2,–,–,–,–
CS(=N)(=O)c1ccc(C(F)(F)F)cc1 (stereo unspecified),–,–,< 0.23,0.08,> 50,< 0.23,–,–,–,–,1.5,–,–,–,2.5
CCOC(=O)/C(=S(/NC(=O)C(C)(C)C)c1ccccc1)P(=O)(OCC)OCC (stereo unspecified),< 0.5,25 10^-6 cm/s,0.41,–,> 87,> 0.23,1.9,< 0.5,57,< 0.5,3,–,–,–,–
N#C/N=S(\c1ccc(C(F)(F)F)cc1)C1CC1 (stereo unspecified),9,100 10^-6 cm/s,0.43,0.18,42,< 0.23,0.7,< 0.1,72,< 0.1,2.2,–,–,–,–
